Experimental findings from ChEMBL document CHEMBL3132769, “Fragment growing to retain or alter the selectivity of anchored kinase hinge-binding fragments” (Medchemcomm, 2014) are described below.

Assay [1] concerns the target T1, Serine/threonine-protein kinase DCLK2 (Homo sapiens) (UniProt Q8N568).
T1 sequence (whole entry): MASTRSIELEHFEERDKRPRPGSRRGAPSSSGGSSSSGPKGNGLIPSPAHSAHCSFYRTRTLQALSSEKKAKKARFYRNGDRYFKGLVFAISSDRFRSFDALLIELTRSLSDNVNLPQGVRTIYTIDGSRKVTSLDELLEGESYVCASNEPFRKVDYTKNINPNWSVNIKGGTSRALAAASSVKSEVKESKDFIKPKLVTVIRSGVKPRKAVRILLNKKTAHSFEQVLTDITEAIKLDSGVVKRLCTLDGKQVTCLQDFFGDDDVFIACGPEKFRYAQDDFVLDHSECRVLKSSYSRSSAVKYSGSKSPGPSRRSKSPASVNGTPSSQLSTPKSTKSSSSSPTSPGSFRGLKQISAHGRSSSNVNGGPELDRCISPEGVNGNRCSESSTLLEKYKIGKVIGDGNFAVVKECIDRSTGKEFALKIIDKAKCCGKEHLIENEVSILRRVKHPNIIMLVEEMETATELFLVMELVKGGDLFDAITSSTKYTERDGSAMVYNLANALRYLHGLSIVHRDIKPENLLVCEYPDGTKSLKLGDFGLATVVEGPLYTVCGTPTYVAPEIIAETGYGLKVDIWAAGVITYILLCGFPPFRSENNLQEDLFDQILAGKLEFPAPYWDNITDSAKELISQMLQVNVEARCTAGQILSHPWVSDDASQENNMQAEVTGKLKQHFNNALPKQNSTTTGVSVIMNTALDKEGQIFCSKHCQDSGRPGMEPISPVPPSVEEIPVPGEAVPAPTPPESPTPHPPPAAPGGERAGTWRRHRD
Description: Inhibition of human full length DCAMKL2 expressed in baculovirus assessed as substrate phosphorylation using fluorescence-labelled peptides as substrate at 2 uM after 90 mins by microfluidic peptide phosphorylation assay.

In assay [2] the target is Tyrosine-protein kinase BTK (Homo sapiens) (UniProt Q06187). The conditions noted are these: 0.1 uM.
Chain of Tyrosine-protein kinase BTK (Homo sapiens) (Q06187 whole entry, the tested form may be a part): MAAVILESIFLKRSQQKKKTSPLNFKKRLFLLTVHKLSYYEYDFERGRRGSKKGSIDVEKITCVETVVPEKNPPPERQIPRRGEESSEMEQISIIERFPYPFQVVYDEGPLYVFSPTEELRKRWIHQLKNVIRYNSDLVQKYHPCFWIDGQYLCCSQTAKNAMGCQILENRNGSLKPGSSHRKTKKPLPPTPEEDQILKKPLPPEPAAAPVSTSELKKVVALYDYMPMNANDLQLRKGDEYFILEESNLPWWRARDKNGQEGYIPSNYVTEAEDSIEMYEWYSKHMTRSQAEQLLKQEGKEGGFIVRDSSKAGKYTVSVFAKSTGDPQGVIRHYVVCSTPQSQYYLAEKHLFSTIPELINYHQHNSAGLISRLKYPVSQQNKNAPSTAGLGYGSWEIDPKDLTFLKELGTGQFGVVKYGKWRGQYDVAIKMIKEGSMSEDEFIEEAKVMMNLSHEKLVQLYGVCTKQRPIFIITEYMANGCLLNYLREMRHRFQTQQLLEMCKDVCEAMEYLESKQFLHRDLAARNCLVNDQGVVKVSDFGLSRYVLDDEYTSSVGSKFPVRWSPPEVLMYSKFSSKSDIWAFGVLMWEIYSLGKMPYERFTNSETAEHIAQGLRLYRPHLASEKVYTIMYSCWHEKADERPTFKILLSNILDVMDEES
Description: Inhibition of human full length BTK expressed in baculovirus assessed as substrate phosphorylation using fluorescence-labelled peptides as substrate at 0.1 uM after 90 mins by microfluidic peptide phosphorylation assay
The target of assay [3] is Tyrosine-protein kinase HCK (Homo sapiens) (UniProt P08631). The assay is described as follows: Inhibition of human HCK catalytic domain expressed in baculovirus assessed as substrate phosphorylation using fluorescence-labelled peptides as substrate at 0.1 uM after 90 mins by microfluidic peptide phosphorylation assay.
Chain of Tyrosine-protein kinase HCK (Homo sapiens) (P08631 2-526 limits assumed): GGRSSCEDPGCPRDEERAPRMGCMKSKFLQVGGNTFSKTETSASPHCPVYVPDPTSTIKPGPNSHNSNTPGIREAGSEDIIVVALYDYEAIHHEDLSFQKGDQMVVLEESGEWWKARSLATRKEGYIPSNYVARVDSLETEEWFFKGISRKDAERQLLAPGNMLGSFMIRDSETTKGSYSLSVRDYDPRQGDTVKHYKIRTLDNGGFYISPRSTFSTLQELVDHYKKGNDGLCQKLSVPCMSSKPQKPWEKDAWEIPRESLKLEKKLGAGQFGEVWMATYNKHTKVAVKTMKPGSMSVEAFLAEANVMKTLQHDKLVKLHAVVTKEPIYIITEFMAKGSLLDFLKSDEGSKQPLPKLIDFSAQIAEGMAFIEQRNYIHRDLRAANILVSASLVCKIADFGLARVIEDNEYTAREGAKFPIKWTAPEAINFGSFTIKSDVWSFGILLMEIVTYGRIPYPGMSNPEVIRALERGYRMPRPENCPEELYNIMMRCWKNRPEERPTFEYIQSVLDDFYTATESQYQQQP
Assay [4] has as its target Proto-oncogene tyrosine-protein kinase Src (Homo sapiens) (UniProt P12931). The assay is described as follows: Inhibition of human full length SRC expressed in baculovirus assessed as substrate phosphorylation using fluorescence-labelled peptides as substrate at 0.06 uM after 90 mins by microfluidic peptide phosphorylation assay.
For assay [5], the target named is T2, Mitogen-activated protein kinase 13 (Homo sapiens) (UniProt O15264).
T2 sequence (whole entry): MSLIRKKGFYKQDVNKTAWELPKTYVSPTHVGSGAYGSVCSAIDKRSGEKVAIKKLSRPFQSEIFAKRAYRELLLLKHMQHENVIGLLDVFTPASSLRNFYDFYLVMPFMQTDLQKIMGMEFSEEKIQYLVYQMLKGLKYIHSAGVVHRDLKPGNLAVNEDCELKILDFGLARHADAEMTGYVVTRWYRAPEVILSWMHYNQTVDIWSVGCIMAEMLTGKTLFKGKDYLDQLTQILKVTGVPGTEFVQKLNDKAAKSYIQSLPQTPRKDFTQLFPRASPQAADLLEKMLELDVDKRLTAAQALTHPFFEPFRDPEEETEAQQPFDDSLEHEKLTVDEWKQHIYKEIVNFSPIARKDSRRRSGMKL
Description: Inhibition of human full length p38 delta expressed in Escherichia coli cell assessed as substrate phosphorylation using fluorescence-labelled peptides as substrate at 95 uM after 90 mins by microfluidic peptide phosphorylation assay.

Assay [6] addresses T3, Serine/threonine-protein kinase Sgk1 (Homo sapiens) (UniProt O00141).
T3 sequence (whole entry): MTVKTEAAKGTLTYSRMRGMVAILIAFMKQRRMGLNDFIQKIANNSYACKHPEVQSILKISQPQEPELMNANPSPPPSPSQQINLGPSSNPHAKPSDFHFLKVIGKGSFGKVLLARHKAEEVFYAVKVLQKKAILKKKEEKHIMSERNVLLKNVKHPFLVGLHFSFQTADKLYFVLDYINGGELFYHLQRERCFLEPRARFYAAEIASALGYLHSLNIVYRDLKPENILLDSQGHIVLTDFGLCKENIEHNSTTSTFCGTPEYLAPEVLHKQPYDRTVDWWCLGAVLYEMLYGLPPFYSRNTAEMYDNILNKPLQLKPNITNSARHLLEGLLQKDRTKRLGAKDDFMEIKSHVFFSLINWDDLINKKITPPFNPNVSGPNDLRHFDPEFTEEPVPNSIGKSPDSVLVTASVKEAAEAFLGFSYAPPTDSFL
The assay is described as follows: Inhibition of human truncated SGK1 expressed in baculovirus assessed as substrate phosphorylation using fluorescence-labelled peptides as substrate at […] after 90 mins by microfluidic peptide phosphorylation assay.

The target in assay [7] is Fibroblast growth factor receptor 2 (Homo sapiens) (UniProt P21802). Description: Inhibition of human FGFR2 catalytic domain expressed in baculovirus assessed as substrate phosphorylation using fluorescence-labelled peptides as substrate at 1000 uM after 90 mins by microfluidic peptide phosphorylation assay.
Chain of Fibroblast growth factor receptor 2 (Homo sapiens) (P21802 22-821 limits assumed): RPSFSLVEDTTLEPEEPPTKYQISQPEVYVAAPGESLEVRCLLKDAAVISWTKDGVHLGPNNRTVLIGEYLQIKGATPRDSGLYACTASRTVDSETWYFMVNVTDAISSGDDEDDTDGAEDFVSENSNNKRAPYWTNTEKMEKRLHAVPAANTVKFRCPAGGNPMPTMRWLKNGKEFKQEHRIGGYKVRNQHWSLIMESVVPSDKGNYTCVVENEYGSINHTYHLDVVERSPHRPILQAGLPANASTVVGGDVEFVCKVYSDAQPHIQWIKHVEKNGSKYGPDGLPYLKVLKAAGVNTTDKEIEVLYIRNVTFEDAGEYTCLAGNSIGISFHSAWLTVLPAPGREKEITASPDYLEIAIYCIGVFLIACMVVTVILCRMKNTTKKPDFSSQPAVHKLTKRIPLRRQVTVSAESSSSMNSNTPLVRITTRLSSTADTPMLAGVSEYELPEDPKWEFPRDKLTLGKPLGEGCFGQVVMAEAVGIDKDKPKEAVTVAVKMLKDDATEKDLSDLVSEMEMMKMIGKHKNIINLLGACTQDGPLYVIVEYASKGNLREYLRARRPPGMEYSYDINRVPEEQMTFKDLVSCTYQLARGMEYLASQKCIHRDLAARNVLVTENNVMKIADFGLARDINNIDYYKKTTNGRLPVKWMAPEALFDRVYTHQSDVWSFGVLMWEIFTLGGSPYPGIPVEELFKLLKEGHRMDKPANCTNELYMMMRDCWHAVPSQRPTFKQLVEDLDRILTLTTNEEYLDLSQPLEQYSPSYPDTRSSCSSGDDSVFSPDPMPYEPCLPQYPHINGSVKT
For assay [8], the target named is T4, Inhibitor of nuclear factor kappa-B kinase subunit beta (Homo sapiens) (UniProt O14920).
T4 sequence (whole entry): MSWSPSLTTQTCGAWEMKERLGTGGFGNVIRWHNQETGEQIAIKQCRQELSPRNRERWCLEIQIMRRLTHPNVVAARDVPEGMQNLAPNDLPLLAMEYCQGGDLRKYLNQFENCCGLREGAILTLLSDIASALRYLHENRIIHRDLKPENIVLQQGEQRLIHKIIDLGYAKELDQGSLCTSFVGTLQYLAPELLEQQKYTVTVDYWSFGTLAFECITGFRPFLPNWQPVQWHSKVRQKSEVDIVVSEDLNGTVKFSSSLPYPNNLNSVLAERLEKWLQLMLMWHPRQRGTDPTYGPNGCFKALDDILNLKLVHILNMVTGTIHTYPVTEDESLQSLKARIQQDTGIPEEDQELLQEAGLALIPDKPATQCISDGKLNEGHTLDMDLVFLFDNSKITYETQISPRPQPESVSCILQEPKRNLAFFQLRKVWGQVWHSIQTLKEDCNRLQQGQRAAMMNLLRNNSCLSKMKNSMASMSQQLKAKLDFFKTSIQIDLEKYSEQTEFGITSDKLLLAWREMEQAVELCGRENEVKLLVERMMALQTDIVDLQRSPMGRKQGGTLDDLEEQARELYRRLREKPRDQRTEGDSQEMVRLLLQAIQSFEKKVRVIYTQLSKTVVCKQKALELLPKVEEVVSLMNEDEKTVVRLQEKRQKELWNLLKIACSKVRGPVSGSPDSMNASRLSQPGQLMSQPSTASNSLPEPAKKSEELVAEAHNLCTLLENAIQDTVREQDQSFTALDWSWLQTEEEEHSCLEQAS
Description: Inhibition of human full length IKK beta expressed in baculovirus assessed as substrate phosphorylation using fluorescence-labelled peptides as substrate at 1000 uM after 90 mins by microfluidic peptide phosphorylation assay.

Chain of Proto-oncogene tyrosine-protein kinase Src (Homo sapiens) (P12931 2-536 limits assumed): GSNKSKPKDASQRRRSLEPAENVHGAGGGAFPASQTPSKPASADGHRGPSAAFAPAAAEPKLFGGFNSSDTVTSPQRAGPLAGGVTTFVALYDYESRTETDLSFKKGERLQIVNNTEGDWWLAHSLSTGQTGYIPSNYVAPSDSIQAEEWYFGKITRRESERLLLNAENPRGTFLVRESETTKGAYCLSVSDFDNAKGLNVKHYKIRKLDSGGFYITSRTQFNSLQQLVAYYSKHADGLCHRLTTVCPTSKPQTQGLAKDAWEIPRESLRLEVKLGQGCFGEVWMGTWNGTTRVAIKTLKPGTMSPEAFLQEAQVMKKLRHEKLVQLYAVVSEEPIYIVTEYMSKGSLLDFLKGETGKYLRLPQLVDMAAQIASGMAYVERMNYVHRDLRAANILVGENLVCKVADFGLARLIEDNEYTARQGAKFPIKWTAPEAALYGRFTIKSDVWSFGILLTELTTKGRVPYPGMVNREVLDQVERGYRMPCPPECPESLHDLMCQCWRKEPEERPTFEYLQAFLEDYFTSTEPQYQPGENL

`NC1CCN(c2ncnc3[nH]ccc23)CC1`: the inhibition in assay [1] is 1.5%.

Regarding `C[C@H](CN(C)C)Oc1nc(Nc2cc3cccc(Cl)c3cn2)cnc1C#N`, the figures for the inhibition in assay [2] and in assay [3] were 0% and 4%, respectively.

Turning to `NC1(Cc2ccc(Cl)cc2)CCN(c2ncnc3[nH]ccc23)CC1`, in assay [4], the inhibition was 0%.

`NCCc1ccc(-c2ncnc3[nH]cnc23)cc1`: the inhibition in assay [5] amounted to 13%.

As for `COC(=O)c1cnc(Nc2cnc(C#N)cn2)cc1NCC1CCNCC1`, the inhibition in assay [6] came to 4.5%.

For the compound `c1cnc2[nH]ccc2c1`, the inhibition in assay [7] amounted to 62%; in assay [8] it was 95.5%.
